Tests used:
[1] = tested on: CFA-induced thermal hypersensitivity of the rat hind paw; assay: CFA-Induced Paw Radiant Heat Hypersensitivity; assay type: in vivo; details: 30 mg/kg p.o., HPβCD, group mean values, maximum at any time point up to 180 or 300 min
Protocol: Each rat was placed in a test chamber on a warm glass surface and allowed to acclimate for approximately 10 min. A radiant thermal stimulus (beam of light) was then focused through the glass onto the plantar surface of each hind paw in turn. The thermal stimulus was automatically shut off by a photoelectric relay when the paw was moved or when the cut-off time was reached (20 sec for radiant heat at ˜5 amps). An initial (baseline) response latency to the thermal stimulus was recorded for each animal prior to the injection of complete Freund's adjuvant (CFA). 24 h following intraplantar CFA injection, the response latency of the animal to the thermal stimulus was then re-evaluated and compared to the animal's baseline response time. […] Post-compound treatment withdrawal latencies were assessed at fixed time intervals, typically 30, 60, 120, 180, and 300 min.
The percent reversal (% R) of hypersensitivity was calculated in one of two different ways: 1) using group mean values or 2) using individual animal values. […]
Method 1. For all compounds, the % R of hypersensitivity was calculated using the mean value for groups of animals at each time point according to the following formula: % reversal=[(group treatment response−group CFA response)/(group baseline response−group CFA response)]×100 Results are given for the maximum % reversal observed for each compound at any time point tested. […]

[2] = biological target: T1, MGL in rat brain homogenate (Rattus norvegicus, UniProt Q8R431); assay: 2-AG Accumulation Assay (rat brain homogenate); assay type: biochemical; details: compound 1 μM, percent vehicle = 2-AG accumulation with compound / vehicle ×100, read-out: Rat Brain 2AG % VehCntrl (%) @ 1 μM
T1 construct: one g rat brain was homogenized; from tissue; host or cells: rat brain homogenate
T1 sequence (Q8R431 1-303): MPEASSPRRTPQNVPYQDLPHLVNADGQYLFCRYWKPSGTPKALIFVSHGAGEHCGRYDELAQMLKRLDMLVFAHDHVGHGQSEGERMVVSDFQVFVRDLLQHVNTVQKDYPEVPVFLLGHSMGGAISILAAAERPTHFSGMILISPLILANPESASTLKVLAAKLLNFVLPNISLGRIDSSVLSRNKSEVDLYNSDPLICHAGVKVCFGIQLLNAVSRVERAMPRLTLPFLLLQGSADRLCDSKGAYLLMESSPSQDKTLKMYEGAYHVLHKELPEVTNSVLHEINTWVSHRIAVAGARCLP

activity at 1 µM [2] [%] | SMILES | Method 1: peak % reversal [1] [%]
– | O=C(c1ccc(-c2cccc(C(F)(F)F)c2)c(Cl)c1)N1CC(N2CCN(C(=O)c3cscn3)CC2)C1 [Cpd 1102] | 38
828 | O=C(c1ccc2c(ccn2-c2ncc(C(F)(F)F)cc2Cl)c1)N1CC(N2CCN(C(=O)c3nccs3)CC2)C1 [Cpd 1116] | –

Source: US8445477B2, “Azetidinyl diamides as monoacylglycerol lipase inhibitors” (Janssen Pharmaceutica, NV, priority 2009, dated 2013)
